Test results published in patent publication US4160828A, “Analgesic phosphinyl compounds and compositions” (Hoechst Aktiengesellschaft, priority 1978, dated 1979).

Columns and labels:
[1] = test system: mice; assay: Toxicity by oral administration to mice; type: in vivo, mouse; settings: versus Comparison Compound of the same test series
Method: (§1) The physiological activity of the compounds prepared in the Examples has been tested using various test methods and compared with the activities of various structurally similar commercial products. In each case, testing was carried out with equimolar quantities of the test compounds.
The toxicity was measured by oral administration to 50 mice.

[2] = test system: mouse; assay: Writhing Test in the mouse (Siegmund et al), analgesic activity; type: in vivo; settings: versus Comparison Compound of the same test series
Method: (§2) The physiological activity of the compounds prepared in the Examples has been tested using various test methods and compared with the activities of various structurally similar commercial products. In each case, testing was carried out with equimolar quantities of the test compounds. The analgesic activity was determined by the Writhing Test in the mouse using the method of E. Siegmund et al (Proceed. Soc. --Exp. Biol. Med. 95(1957) Page 729) and by the Randall-Selitto Test in the rat using the method of Randall and Selitto (Arch. Int. Pharmacodyn. 111(1957) Page 409).

[3] = test system: rat; assay: Adjuvant arthritis test in the rat (Pearson et al), anti-inflammatory effect; type: in vivo; settings: sub-chronic; for Adjuvant arthritis: test series III, equimolar quantities; for adjuvant arthritis test compared with comparison compound: versus Comparison Compound C
Method: (§3) The physiological activity of the compounds prepared in the Examples has been tested using various test methods and compared with the activities of various structurally similar commercial products. In each case, testing was carried out with equimolar quantities of the test compounds. The anti-inflammatory effect was measured by the carrageenin oedema test on rat paws using the method of Winter et al (Proceed. Soc. Exp. Biol. Med. 111(1962) Page 544) and in test series III) and also by the adjuvant arthritis test in the rat according to Pearson et al (Arthrit. Rheumat. 2(1959) page 440).

[4] = test system: carrageenin oedema on rat paws; assay: Carrageenin oedema test on rat paws (Winter et al), anti-inflammatory effect; type: in vivo; settings: rat paw; versus Comparison Compound of the same test series
Method: as §3

[5] = test system: rat; assay: Randall-Selitto Test in the rat, analgesic activity; type: in vivo; settings: versus Comparison Compound of the same test series
Method: as §2

[6] = Analgesic activity / overall physiological activity, in words; type: in vivo; settings: test not specified; versus Comparison Compound C
Method: as §1
The analgesic activity was determined by the Writhing Test in the mouse using the method of E. Siegmund et al (Proceed. Soc. --Exp. Biol. Med. 95(1957) Page 729) and by the Randall-Selitto Test in the rat using the method of Randall and Selitto (Arch. Int. Pharmacodyn. 111(1957) Page 409).
The anti-inflammatory effect was measured by the carrageenin oedema test on rat paws using the method of Winter et al (Proceed. Soc. Exp. Biol. Med. 111(1962) Page 544) and in test series III) and also by the adjuvant arthritis test in the rat according to Pearson et al (Arthrit. Rheumat. 2(1959) page 440).

[7] = prior-art compound; cited from earlier work
[8] = prior-art compound; cited from earlier work; remark: listed apart in the source

CP(C)(=O)COC(=O)c1ccccc1Nc1ccnc2c(C(F)(F)F)cccc12 [Compound 2a, dimethylphosphinylmethyl N-(8-trifluoromethyl-4-quinolyl)-anthranilate]
toxicity compared with comparison compound [1]: lower than that of Compound A | Writhing test compared with comparison compound [2]: substantially better than the Comparison compound

CP(C)(=O)CCCOC(=O)c1ccccc1Nc1cccc(C(F)(F)F)c1 [Compound 1e, Dimethylphosphinyl-propyl N-(3-trifluoromethylphenyl)-anthranilate]
Adjuvant arthritis [3]: 10-25 | adjuvant arthritis test compared with comparison compound [3]: considerably better than that of Comparision Compound C | toxicity compared with comparison compound [1]: substantially more favourable than that of Compound C

Cc1cccc(Nc2ccccc2C(=O)OCP(C)(C)=O)c1C [Compound 1c, Dimethylphosphinyl-methyl N-(2,3-dimethylphenyl)-anthranilate]
Carrageenin oedema test / anti-inflammatory activity compared with comparison compound [4]: more or less equivalent to these of the commercial compound | toxicity compared with comparison compound [1]: more favourable toxicity than Compound B | Randall-Selitto test compared with comparison compound [5]: substantial improvement over the Comparison Compound

Cc1cccc(Nc2ccccc2C(=O)OCCCP(C)(C)=O)c1C [Compound 1d, Dimethylphosphinyl-propyl N-(2,3-dimethylphenyl)-anthranilate]
Carrageenin oedema test / anti-inflammatory activity compared with comparison compound [4]: more or less equivalent to these of the commercial compound | toxicity compared with comparison compound [1]: more favourable toxicity than Compound B | Writhing test compared with comparison compound [2]: substantial improvement over the Comparison Compound

CP(C)(=O)CCCOC(=O)c1ccccc1Nc1c(C(F)(F)F)cnc2ccccc12 [Compound 1f, 3-(Dimethylphosphinyl)-propyl N-(3-trifluoromethyl-4-quinolyl)-anthranilate]
analgesic activities compared with comparison compound [6]: clearly improved over that of Comparison Compound C

CP(C)(=O)COC(=O)c1ccccc1Nc1ccnc2cc(Cl)ccc12 [Compound 2c, 3-(dimethylphosphinyl)-methyl N-(7-chloro-4-quinolyl)-anthranilate]
Carrageenin oedema test / anti-inflammatory activity compared with comparison compound [4]: show an improvement compared with Compound A | Writhing test compared with comparison compound [2]: substantially better than the Comparison compound

CP(C)(=O)COC(=O)c1cccnc1Nc1cccc(C(F)(F)F)c1 [Compound 2d, 3-(dimethylphosphinyl)-methyl 2-(3-trifluoromethylanilino)-nicotinate]
Carrageenin oedema test / anti-inflammatory activity compared with comparison compound [4]: practically almost equal to that of the Comparison Compound | toxicity compared with comparison compound [1]: more than twice that of Comparision Compouhd D

CP(C)(=O)CCCOC(=O)c1ccccc1Nc1ccnc2cc(Cl)ccc12 [Compound 4, 3-(dimethylphosphinyl)-propyl N-(7-chloro-4-quinolyl)-anthranilate]
Carrageenin oedema test / anti-inflammatory activity compared with comparison compound [4]: show an improvement compared with Compound A

CP(C)(=O)COC(=O)c1ccccc1Nc1cccc(C(F)(F)F)c1 [Compound 1a, dimethylphosphinylmethyl N-(3-trifluoromethyl-phenyl)-anthranilate]
Adjuvant arthritis [3]: 5-10 | adjuvant arthritis test compared with comparison compound [3]: considerably better than that of Comparision Compound C | toxicity compared with comparison compound [1]: substantially more favourable than that of Compound C | analgesic activities compared with comparison compound [6]: clearly improved over that of Comparison Compound C

O=C(OCC(O)CO)c1ccccc1Nc1ccnc2cc(Cl)ccc12 (stereo not drawn) [2,3-dihydroxypropyl N-(7-chloro-4-quinolyl)-anthranilate]
analgesic activity, prior art [7]: known to have analgesic activity | solubility in water, prior art [8]: insoluble in water

O=C(O)c1ccccc1Nc1cccc(C(F)(F)F)c1 [Compound C, Flufenamic acid, reference compound]
Adjuvant arthritis [3]: 25-50
